# Patent US20140356325A1, “NOVEL 2'-C-METHYL NUCLEOSIDE DERIVATIVE COMPOUNDS” (Ligand Pharmaceuticals Incorporated, priority 2012, published 2014)
# Counter-ions that a name gives are not always drawn.
# Test system: not given
# Experiment: not given
# Conditions: not given
row,Structure (SMILES),melting point
1,"CC(C)[C@H](N)C(=O)O[C@@H]1[C@@H](CO[P@@]2(=O)OCC[C@@H](c3cccc(Cl)c3)O2)O[C@@H](n2cnc3c(O)nc(N)nc32)[C@]1(C)O (as salt: trifluoroacetate) [Compound 118, 2(R)-(2-Amino-6-hydroxy-9 (H)-purinyl)-5(R)-(4(S)-(3-chlorophenyl)-2-oxo-1,3,2-dioxaphosphorinan-2(R)-yloxymethyl)-3(R)-hydroxy-3(R)-methyl-4(R)-L-valinyl-tetrahydrofuran]",> 210 °C
2,"C[C@@]12OC(=O)O[C@@H]1[C@@H](CO[P@@]1(=O)OCC[C@@H](c3cccc(Cl)c3)O1)O[C@H]2n1cnc2c(OCC3CC3)nc(N)nc21 [Compound 121, 2(R)-(2-Amino-6-cyclopropylmethoxy-9(H)-purinyl)-4(R)-(4(S)-(3-chlorophenyl)-2-oxo-1,3,2-dioxaphosphorinan-2(R)-yloxymethyl)-1(R)-methyl-7-oxo-3,6,8-trioxa-cis-bicyclo[3.3.0]octane]",128 to 132 °C
3,"CC(C)COc1nc(N)nc2c1ncn2[C@@H]1O[C@H](CO[P@@]2(=O)OCC[C@@H](c3cccc(Cl)c3)O2)[C@H]2OC(=O)O[C@]21C [Compound 122, 2(R)-(2-Amino-6-(2-methylpropyloxy)-9(H)-purinyl)-4(R)-(4(S)-(3-chlorophenyl)-2-oxo-1,3,2-dioxaphosphorinan-2(R)-yloxymethyl)-1(R)-methyl-7-oxo-3,6,8-trioxa-cis-bicyclo[3.3.0]octane]",118 to 122 °C
4,"C[C@@]12OC(=O)O[C@@H]1[C@@H](CO[P@@]1(=O)OCC[C@@H](c3cccc(Cl)c3)O1)O[C@H]2n1cnc2c(OCC3CCOCC3)nc(N)nc21 [Compound 129, 2(R)-(2-Amino-6-(4-tetrahydropyranylmethoxy)-9(H)-purinyl)-4(R)-(4(S)-(3-chlorophenyl)-2-oxo-1,3,2-dioxaphosphorinan-2(R)-yloxymethyl)-1(R)-methyl-7-oxo-3,6,8-trioxa-cis-bicyclo[3.3.0]octane]",105 to 108 °C
5,"CCOc1nc(N)nc2c1ncn2[C@@H]1O[C@H](CO[P@@]2(=O)OCC[C@@H](c3cccc(F)c3)O2)[C@H]2OC(=O)O[C@]21C [Compound 124, 2(R)-(2-Amino-6-ethoxy-9(H)-purinyl)-4(R)-(4(S)-(3-fluorophenyl)-2-oxo-1,3,2-dioxaphosphorinan-2(R)-yloxymethyl)-1(R)-methyl-7-oxo-3,6,8-trioxa-cis-bicyclo[3.3.0]octane]",88 to 90 °C
6,"CCOc1nc(N)nc2c1ncn2[C@@H]1O[C@H](CO[P@@]2(=O)OCC[C@@H](c3cccc(Cl)c3)O2)[C@H]2OC(=O)O[C@]21C [Compound 120, 2(R)-(2-Amino-6-ethoxy-9(H)-purinyl)-4(R)-(4(S)-(3-chlorophenyl)-2-oxo-1,3,2-dioxaphosphorinan-2(R)-yloxymethyl)-1(R)-methyl-7-oxo-3,6,8-trioxa-cis-bicyclo[3.3.0]octane]",82 to 84 °C

# The remaining lines, values ahead:
row,melting point,Structure (SMILES)
1,106 to 110 °C,"CC(C)Oc1nc(N)nc2c1ncn2[C@@H]1O[C@H](CO[P@@]2(=O)OCC[C@@H](c3cccc(Cl)c3)O2)[C@H]2OC(=O)O[C@]21C [Compound 151, 2(R)-(2-Amino-6-isopropyloxy-9(H)-purinyl)-4(R)-(4(S)-(3-chlorophenyl)-2-oxo-1,3,2-dioxaphosphorinan-2(R)-yloxymethyl)-1(R)-methyl-7-oxo-3,6,8-trioxa-cis-bicyclo[3.3.0]octane]"
2,88 to 90 °C,"CC1CC1COc1nc(N)nc2c1ncn2[C@@H]1O[C@H](CO[P@@]2(=O)OCC[C@@H](c3cccc(Cl)c3)O2)[C@H]2OC(=O)O[C@]21C (stereo partly drawn) [Compound 135, 2(R)-(2-Amino-6-(2-methylcyclopropylmethoxy)-9(H)-purinyl)-4(R)-(4(S)-(3-chlorophenyl)-2-oxo-1,3,2-dioxaphosphorinan-2(R)-yloxymethyl)-1(R)-methyl-7-oxo-3,6,8-trioxa-cis-bicyclo[3.3.0]octane]"
3,72 to 75 °C,"CCOC(COc1nc(N)nc2c1ncn2[C@@H]1O[C@H](CO[P@@]2(=O)OCC[C@@H](c3cccc(Cl)c3)O2)[C@H]2OC(=O)O[C@]21C)OCC [Compound 149, 2(R)-(2-Amino-6-(2,2-diethoxyethoxy)-9(H)-purinyl)-4(R)-(4(S)-(3-chlorophenyl)-2-oxo-1,3,2-dioxaphosphorinan-2(R)-yloxymethyl)-1(R)-methyl-7-oxo-3,6,8-trioxa-cis-bicyclo[3.3.0]octane]"
4,93 to 95 °C,"C[C@@]12OC(=O)O[C@@H]1[C@@H](CO[P@@]1(=O)OCC[C@@H](c3cccc(Cl)c3)O1)O[C@H]2n1cnc2c(OCCC3CCCCC3)nc(N)nc21 [Compound 131, 2(R)-(2-Amino-6-(2-cyclohexylethoxy)-9(H)-purinyl)-4(R)-(4(S)-(3-chlorophenyl)-2-oxo-1,3,2-dioxaphosphorinan-2(R)-yloxymethyl)-1(R)-methyl-7-oxo-3,6,8-trioxa-cis-bicyclo[3.3.0]octane]"
5,101 to 103 °C,"C[C@@]12OC(=O)O[C@@H]1[C@@H](CO[P@@]1(=O)OCC[C@@H](c3cccc(Cl)c3)O1)O[C@H]2n1cnc2c(OCC3CCCCC3)nc(N)nc21 [Compound 146, 2(R)-(2-Amino-6-cyclohexylmethoxy-9(H)-purinyl)-4(R)-(4(S)-(3-chlorophenyl)-2-oxo-1,3,2-dioxaphosphorinan-2(R)-yloxymethyl)-1(R)-methyl-7-oxo-3,6,8-trioxa-cis-bicyclo[3.3.0]octane]"
6,72 to 75 °C,"CCC(CC)COc1nc(N)nc2c1ncn2[C@@H]1O[C@H](CO[P@@]2(=O)OCC[C@@H](c3cccc(Cl)c3)O2)[C@H]2OC(=O)O[C@]21C [Compound 143, 2(R)-(2-Amino-6-(2-ethylbutyloxy)-9(H)-purinyl)-4(R)-(4(S)-(3-chlorophenyl)-2-oxo-1,3,2-dioxaphosphorinan-2(R)-yloxymethyl)-1(R)-methyl-7-oxo-3,6,8-trioxa-cis-bicyclo[3.3.0]octane]"

# Test system: HCV replication in human liver tissue
# Experiment: HCV-infected human liver slice assay
# Assay type: cell-based
# Conditions: relative to control, untreated slices; following incubation
# Experimental: Inhibition of HCV replication in human liver tissue is evaluated using the following assay. Procurement. Liver from a brain-dead HCV antibody-positive human patient is perfused with ice-cold Viaspan (Dupont Pharmaceutical) preservation solution and received on ice in Viaspan. Precision-cut liver slices of ˜200-250 μm thickness and […] are prepared and cultured in Waymouth's cell culture medium (Gibco, Inc.) that is supplemented with 10% fetal bovine serum and 10 mL/L Fungi-Bact at 37° C., and gassed with carbogen (95% O2, 5% CO2) at 0.75 liters/min. Tissue slices are maintained in culture for 72 h. Cell culture medium containing test compound in solution is changed on a daily basis. At appropriate times of liver slice incubation, liver slices and medium are collected for analysis of HCV RNA (tissue and medium) and nucleotide levels (NTP). All collected media and tissue slices are maintained in liquid N2 until analysis. Medium and tissue samples are analyzed for HCV RNA levels according to published procedures (Bonacini et. al., 1999) which utilize an automated, multicycle, polymerase chain reaction (PCR) based technique. This assay has a lower limit of detection for HCV RNA of 100 viral copies/ml.
row,Structure (SMILES),HCV RNA levels present in the liver slice culture media
1,C[C@@]1(O)[C@H](O)[C@@H](CO)O[C@H]1n1cnc2c(=O)[nH]c(N)nc21 [2′-C-methylguanosine],decreased

# Same assay, conditions: treatment for 72 h; medium from 48-72 h
row,Structure (SMILES),amount of HCV RNA released into the culture medium
1,C[C@@]1(O)[C@H](O)[C@@H](CO)O[C@H]1n1cnc2c(=O)[nH]c(N)nc21 [2′-C-methylguanosine],decreases

# Test system: purine salvage pathway enzymes such as adenosine deaminase and purine nucleoside phosphorylase
# Experiment: not given
# Conditions: cited from earlier work
row,Structure (SMILES),resistance to metabolism by purine salvage pathway enzymes
1,C[C@@]1(O)[C@H](O)[C@@H](CO)O[C@H]1n1cnc2c(N)ncnc21 [2′-C-methyladenosine],increased resistance to metabolism
